Measurements: ChEMBL document CHEMBL1153049, “Identification of aminoethyl pyrrolo dihydroisoquinolinones as novel poly(ADP-ribose) polymerase-1 inhibitors” (Bioorg Med Chem Lett, 2009)
Calls of active or inactive are those of the source. The rule behind the calls is not given here.

Legend:
[1] = biological target: Poly [ADP-ribose] polymerase 1 (Homo sapiens, UniProt P09874)
Description: Inhibition of PARP1 in human HeLa cells by microplate scintillation counting

[2] = biological target: T1, Poly [ADP-ribose] polymerase tankyrase-1 (Homo sapiens) (UniProt O95271); assay: Inhibition of human tankyrase 1 catalytic domain expressed in Escherichia coli up to 500 nM
T1 sequence (whole entry): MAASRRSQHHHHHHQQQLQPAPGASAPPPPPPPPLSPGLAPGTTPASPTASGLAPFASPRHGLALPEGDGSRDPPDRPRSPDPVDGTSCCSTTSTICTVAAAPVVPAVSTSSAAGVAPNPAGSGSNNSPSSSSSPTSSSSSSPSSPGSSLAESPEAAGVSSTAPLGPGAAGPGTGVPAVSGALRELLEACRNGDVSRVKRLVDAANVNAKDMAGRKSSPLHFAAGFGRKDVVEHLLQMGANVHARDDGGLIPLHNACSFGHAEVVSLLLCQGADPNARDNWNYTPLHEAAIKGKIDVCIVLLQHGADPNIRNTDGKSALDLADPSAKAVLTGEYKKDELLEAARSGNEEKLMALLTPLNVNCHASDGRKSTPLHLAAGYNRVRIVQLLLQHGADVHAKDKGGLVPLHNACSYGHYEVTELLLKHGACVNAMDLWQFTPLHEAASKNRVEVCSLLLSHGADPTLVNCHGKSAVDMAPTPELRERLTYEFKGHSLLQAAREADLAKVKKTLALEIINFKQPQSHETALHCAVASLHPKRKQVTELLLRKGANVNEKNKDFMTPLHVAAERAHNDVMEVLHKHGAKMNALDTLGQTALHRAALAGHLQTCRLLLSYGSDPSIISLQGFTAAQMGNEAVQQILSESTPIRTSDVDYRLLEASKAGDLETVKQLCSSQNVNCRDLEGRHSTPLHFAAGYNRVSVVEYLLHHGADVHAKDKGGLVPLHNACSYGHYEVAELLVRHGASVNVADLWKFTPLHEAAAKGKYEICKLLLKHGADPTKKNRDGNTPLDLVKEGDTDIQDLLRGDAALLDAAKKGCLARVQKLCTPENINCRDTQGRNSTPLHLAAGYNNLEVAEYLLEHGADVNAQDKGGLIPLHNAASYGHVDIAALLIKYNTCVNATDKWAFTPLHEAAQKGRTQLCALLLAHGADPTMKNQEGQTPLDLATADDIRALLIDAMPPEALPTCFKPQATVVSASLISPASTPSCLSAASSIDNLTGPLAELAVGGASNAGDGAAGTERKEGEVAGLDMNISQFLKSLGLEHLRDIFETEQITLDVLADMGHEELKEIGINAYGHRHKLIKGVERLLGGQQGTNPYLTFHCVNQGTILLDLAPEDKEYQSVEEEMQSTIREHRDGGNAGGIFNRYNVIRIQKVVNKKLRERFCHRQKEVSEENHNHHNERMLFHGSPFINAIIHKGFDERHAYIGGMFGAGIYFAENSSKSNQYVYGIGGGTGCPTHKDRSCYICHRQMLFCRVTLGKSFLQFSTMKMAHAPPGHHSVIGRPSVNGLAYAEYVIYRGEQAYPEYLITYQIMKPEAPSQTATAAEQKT

[3] = biological target: Protein mono-ADP-ribosyltransferase PARP4 (Homo sapiens) (UniProt Q9UKK3); assay: Inhibition of human vPARP catalytic domain expressed in Escherichia coli up to 500 nM
[4] = biological target: Poly [ADP-ribose] polymerase 2 (Homo sapiens, UniProt Q9UGN5); assay: Inhibition of human PARP2 expressed in baculovirus system
[5] = biological target: T2, Protein mono-ADP-ribosyltransferase PARP3 (Homo sapiens) (UniProt Q9Y6F1); assay: Inhibition of human PARP3 up to 500 nM
T2 sequence (whole entry): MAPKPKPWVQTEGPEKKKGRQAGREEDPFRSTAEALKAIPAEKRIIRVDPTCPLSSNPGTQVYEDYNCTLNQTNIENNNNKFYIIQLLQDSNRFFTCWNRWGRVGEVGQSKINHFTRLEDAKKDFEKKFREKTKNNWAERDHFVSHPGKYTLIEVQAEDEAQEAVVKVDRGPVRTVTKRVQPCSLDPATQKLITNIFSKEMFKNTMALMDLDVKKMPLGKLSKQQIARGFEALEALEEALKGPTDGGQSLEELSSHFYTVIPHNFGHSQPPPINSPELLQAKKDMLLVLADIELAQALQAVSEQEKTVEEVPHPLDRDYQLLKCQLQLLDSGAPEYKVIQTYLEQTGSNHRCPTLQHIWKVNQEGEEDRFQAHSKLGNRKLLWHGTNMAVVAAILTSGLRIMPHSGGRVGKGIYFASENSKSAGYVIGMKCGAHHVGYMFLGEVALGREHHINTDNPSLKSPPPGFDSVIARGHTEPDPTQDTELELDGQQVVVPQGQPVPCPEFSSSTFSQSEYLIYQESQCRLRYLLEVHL

Poly [ADP-ribose] polymerase 1, sequence (P09874 whole entry, the tested form may be a part): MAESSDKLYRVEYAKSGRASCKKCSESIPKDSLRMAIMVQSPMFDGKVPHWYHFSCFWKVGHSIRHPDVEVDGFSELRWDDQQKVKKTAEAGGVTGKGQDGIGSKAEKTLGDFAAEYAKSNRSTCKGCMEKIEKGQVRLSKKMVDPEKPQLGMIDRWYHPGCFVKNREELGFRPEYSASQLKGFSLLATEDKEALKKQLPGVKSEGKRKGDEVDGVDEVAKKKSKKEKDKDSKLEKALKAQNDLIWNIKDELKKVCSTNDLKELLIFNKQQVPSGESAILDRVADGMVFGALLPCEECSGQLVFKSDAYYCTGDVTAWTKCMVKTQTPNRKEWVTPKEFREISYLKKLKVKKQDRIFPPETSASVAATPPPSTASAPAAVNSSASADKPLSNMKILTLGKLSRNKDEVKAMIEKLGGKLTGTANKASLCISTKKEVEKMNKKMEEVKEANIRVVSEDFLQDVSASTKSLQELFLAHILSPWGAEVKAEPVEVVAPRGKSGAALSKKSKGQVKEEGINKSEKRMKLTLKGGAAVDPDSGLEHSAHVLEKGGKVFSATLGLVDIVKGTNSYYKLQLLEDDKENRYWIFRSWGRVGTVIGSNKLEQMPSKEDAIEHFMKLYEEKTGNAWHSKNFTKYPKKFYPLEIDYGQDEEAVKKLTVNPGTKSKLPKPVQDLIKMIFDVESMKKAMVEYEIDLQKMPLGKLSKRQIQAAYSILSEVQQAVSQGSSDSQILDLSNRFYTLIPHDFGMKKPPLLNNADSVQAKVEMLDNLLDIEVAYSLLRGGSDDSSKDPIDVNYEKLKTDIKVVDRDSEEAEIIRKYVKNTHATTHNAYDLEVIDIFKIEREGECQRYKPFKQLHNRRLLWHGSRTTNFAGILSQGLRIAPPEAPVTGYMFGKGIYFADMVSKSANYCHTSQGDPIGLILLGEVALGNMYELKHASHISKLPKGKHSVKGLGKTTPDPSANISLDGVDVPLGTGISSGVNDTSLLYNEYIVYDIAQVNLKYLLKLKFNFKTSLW
Protein mono-ADP-ribosyltransferase PARP4 (Homo sapiens), sequence (Q9UKK3 whole entry, the tested form may be a part): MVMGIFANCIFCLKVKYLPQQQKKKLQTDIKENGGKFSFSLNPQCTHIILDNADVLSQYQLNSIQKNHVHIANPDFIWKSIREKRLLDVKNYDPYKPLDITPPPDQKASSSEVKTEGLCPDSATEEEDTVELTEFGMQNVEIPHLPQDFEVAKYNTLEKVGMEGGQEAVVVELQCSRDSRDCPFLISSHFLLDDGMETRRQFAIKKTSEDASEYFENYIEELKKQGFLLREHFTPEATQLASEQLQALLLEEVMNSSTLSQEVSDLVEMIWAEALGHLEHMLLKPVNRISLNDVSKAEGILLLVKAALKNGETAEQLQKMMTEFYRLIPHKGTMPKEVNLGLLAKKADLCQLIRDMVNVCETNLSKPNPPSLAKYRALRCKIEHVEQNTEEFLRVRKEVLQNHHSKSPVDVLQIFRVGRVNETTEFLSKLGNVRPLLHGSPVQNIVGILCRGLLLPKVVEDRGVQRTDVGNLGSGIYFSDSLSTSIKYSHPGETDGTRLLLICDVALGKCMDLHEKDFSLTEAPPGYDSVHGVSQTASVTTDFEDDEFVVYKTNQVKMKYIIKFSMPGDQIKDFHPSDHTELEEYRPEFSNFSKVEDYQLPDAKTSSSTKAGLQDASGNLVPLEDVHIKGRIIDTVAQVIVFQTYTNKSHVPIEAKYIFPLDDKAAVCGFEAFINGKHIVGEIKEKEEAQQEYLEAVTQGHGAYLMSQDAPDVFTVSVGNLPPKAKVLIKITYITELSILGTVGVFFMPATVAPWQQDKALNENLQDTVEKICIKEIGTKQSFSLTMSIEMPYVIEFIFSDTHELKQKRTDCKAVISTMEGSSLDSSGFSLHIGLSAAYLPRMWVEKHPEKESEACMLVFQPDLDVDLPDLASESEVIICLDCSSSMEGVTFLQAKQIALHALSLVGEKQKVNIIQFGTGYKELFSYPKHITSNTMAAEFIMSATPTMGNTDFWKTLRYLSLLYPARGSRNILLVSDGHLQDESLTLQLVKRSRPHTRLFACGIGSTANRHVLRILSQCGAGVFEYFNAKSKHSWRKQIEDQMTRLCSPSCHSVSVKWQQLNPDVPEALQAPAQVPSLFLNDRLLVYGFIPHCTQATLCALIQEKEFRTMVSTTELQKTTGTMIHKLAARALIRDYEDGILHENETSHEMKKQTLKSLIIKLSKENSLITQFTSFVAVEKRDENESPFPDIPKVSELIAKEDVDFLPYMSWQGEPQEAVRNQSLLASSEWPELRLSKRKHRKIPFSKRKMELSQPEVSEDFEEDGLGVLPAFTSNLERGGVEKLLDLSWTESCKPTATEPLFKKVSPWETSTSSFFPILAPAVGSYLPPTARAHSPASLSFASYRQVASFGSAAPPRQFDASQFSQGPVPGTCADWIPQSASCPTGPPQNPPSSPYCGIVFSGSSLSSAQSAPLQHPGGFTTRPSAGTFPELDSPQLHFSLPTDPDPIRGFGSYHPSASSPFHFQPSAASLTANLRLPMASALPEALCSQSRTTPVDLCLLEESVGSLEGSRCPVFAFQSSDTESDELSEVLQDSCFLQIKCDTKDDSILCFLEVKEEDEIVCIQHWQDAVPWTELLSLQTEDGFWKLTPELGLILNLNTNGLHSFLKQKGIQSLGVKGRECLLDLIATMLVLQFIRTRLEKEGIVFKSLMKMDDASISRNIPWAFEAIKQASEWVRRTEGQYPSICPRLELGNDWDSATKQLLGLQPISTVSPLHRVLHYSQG
Poly [ADP-ribose] polymerase 2, sequence (Q9UGN5 whole entry): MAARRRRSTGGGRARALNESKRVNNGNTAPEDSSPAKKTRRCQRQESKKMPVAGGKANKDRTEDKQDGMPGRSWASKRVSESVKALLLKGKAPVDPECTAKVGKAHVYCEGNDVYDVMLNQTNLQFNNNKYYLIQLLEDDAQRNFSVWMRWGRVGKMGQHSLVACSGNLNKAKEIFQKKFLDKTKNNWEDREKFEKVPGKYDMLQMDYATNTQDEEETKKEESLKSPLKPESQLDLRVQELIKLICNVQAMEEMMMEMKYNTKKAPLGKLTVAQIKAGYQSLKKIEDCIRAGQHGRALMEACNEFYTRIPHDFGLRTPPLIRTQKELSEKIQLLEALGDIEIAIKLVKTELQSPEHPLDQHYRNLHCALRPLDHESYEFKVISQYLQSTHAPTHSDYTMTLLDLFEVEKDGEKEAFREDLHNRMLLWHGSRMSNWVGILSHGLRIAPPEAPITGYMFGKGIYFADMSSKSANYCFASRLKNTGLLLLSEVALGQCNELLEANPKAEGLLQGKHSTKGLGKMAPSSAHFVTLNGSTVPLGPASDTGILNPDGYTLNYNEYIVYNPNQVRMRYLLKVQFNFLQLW

Compound	IC50 [1] [µM]	inhibition [2]	inhibition [3]	IC50 [4] [µM]	inhibition [5]
Cn1cc(CNCCc2c[nH]c3ccc4c(c23)CCNC4=O)cn1	> 0.5	–	–	–	–
O=C1NCCc2c1ccc1[nH]cc(CCNC(=O)N3CCNCC3)c21	0.025	inactive	inactive	0.032	inactive
O=C1NCCc2c1ccc1[nH]cc(CCNCc3cccc4cccnc34)c21	> 0.5	–	–	–	–
O=C1NCCc2c1ccc1[nH]cc(CCNC(=O)N3CCCNCC3)c21	0.027	inactive	inactive	0.017	inactive
